Biological target: canine TRPM8 (Canis lupus familiaris, UniProt Q1A7N1)
Test: In Vitro Canine TRPM8 Functional Assay (Ca2+ fluorescence, icilin activation)
Assay type: cell-based
Conditions: for IC50: HEK293 cells stably expressing canine TRPM8, icilin activation, eight-point dose-response, read-out: IC50; for % Inh @ 0.2 (μM) / inhibition at 0.2 µM: compound at 0.2 μM, canine TRPM8, icilin activation; for inhibition at 0.2 µM: read-out: % Inh @ 0.2
Outline: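 HEK293 cells stably expressing canine TRPM8 loaded with Calcium 3 dye; compound added and Ca2+ fluorescence monitored 5 min before icilin at a final level giving ~80% maximal response, read on FLIPR or FDSS. EC50 or IC50 from eight-point dose-response, quadruplicate wells per point.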

Sequence of canine TRPM8 (Q1A7N1 1-1104): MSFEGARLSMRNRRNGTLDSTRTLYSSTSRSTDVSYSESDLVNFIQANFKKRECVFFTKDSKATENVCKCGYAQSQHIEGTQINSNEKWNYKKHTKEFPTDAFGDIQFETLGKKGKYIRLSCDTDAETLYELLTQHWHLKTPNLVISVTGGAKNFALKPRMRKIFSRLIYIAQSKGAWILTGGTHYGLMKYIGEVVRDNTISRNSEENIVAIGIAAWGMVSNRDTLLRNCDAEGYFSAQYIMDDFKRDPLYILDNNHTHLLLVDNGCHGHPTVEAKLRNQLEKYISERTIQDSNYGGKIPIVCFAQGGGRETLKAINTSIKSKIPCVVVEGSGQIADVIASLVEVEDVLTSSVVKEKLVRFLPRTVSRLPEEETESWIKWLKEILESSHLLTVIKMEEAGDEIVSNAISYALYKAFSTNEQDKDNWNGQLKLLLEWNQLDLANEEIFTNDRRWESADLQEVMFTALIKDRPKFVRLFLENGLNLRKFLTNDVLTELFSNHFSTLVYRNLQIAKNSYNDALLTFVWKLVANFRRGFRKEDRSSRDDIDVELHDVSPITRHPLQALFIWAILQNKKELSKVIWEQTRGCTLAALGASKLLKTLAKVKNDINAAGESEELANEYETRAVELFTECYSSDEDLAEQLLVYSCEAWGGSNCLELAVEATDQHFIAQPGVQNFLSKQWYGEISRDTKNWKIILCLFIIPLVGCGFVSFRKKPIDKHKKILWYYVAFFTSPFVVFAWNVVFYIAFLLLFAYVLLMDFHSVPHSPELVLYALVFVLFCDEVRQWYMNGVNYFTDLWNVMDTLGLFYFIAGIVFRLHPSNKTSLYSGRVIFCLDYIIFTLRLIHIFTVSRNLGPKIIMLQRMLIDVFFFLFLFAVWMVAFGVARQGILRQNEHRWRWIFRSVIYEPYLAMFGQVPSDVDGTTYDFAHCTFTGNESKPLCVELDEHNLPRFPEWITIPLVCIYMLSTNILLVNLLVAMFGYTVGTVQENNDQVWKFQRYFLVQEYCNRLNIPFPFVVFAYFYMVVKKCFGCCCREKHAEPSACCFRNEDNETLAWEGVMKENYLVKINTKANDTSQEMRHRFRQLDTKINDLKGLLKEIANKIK

Row | SMILES | IC50 [nM] | % Inh @ 0.2 (μM) [%] | inhibition at 0.2 µM [%]
1 | O=S1NC(c2ccc(S(=O)(=O)N(CCC3CC3)c3sc4ccccc4c3Cl)cc2)=NO1 (stereo not drawn) [Compound 625, N-(3-Chloro-benzo[b]thiophen-2-yl)-N-(cyclopropyl-ethyl)-4-(3H-[1,2,3,5]oxathiadiazole-2-oxide)-benzenesulfonamide] | 20.4 | 103 | –
2 | O=c1[nH]c(-c2ccc(S(=O)(=O)N(CCC3CC3)c3sc4ccccc4c3Br)cc2)no1 [Compound 626, N-(3-Bromo-benzo[b]thiophen-2-yl)-N-(cyclopropyl-ethyl)-4-(5-oxo-4,5-dihydro-[1,2,4]oxadiazol-3-yl)-benzenesulfonamide] | 7.4 | – | 103
3 | O=c1[nH]c(-c2ccc(S(=O)(=O)N(CCC3CC3)c3sc4ccccc4c3Cl)cc2)no1 [Compound 627, N-(3-Chloro-benzo[b]thiophen-2-yl)-N-(cyclopropyl-ethyl)-4-(5-oxo-4,5-dihydro-[1,2,4]oxadiazol-3-yl)-benzenesulfonamide] | 8.6 | – | 103
4 | COC(=O)c1ccc(S(=O)(=O)N(CCC2CC2)c2sc3ccccc3c2C)cc1 [Compound 628, N-(2-Cyclopropyl-ethyl)-N-(3-methyl-benzo[b]thiophen-2-yl)-4-carbomethoxy-benzenesulfonamide] | 23.3 | – | 103
5 | COC(=O)c1ccc(S(=O)(=O)N(CCC(F)(F)F)c2sc3ccccc3c2C)cc1 [Compound 629, N-(3-Methyl-benzo[b]thiophen-2-yl)-N-(3,3,3-trifluoro-propyl)-4-carbomethoxy-benzenesulfonamide] | 26.2 | – | 103
6 | COC(=O)c1ccc(S(=O)(=O)N(CCCC(F)(F)F)c2sc3ccccc3c2C)cc1 [Compound 630, N-(3-Methyl-benzo[b]thiophen-2-yl)-N-(4,4,4-trifluoro-butyl)-4-carbomethoxy-benzenesulfonamide] | 35.6 | – | 103
7 | COC(=O)c1ccc(S(=O)(=O)N(CCCCC(F)(F)F)c2sc3ccccc3c2C)cc1 [Compound 631, N-(3-Methyl-benzo[b]thiophen-2-yl)-N-(5,5,5-trifluoro-pentyl)-4-carbomethoxy-benzenesulfonamide] | 26.3 | – | 103
8 | CC1=C(N(CCC2CC2)S(=O)(=O)c2ccc(C(=O)O)cc2)S(=O)(=O)c2ccccc21 [Compound 632, N-(2-Cyclopropyl-ethyl)-N-(3-methyl-1,1-dioxo-benzo[b]thiophen-2-yl)-4-carboxy-benzenesulfonamide] | – | – | 12
9 | CC1=C(N(CCCCC(F)(F)F)S(=O)(=O)c2ccc(C(=O)O)cc2)S(=O)(=O)c2ccccc21 [Compound 633, N-(3-Methyl-1,1-dioxo-benzo[b]thiophen-2-yl)-N-(5,5,5-trifluoro-pentyl)-4-carboxy-benzenesulfonamide] | – | – | 17
10 | CC1=C(N(Cc2ccc(F)c(C(F)(F)F)c2)S(=O)(=O)c2ccc(C(=O)O)cc2)S(=O)(=O)c2ccccc21 [Compound 634, N-(4-Fluoro-3-trifluoromethyl-benzyl)-N-(3-methyl-1,1-dioxo-benzo[b]thiophen-2-yl)-4-carboxy-benzenesulfonamide] | – | – | 55
11 | O=S(=O)(c1ccc(-c2nnn[nH]2)cc1)N(CCC1CC1)c1sc2ccccc2c1Cl [Compound 635, N-(3-Chloro-benzo[b]thiophen-2-yl)-N-(2-cyclopropyl-ethyl)-4-(1H-tetrazol-5-yl)-benzenesulfonamide] | 7.4 | – | 101
12 | O=S(=O)(c1ccc(-c2nnn[nH]2)cc1)N(CCC(F)(F)F)c1sc2ccccc2c1Cl [Compound 636, N-(3-Chloro-benzo[b]thiophen-2-yl)-N-(3,3,3-trifluoro-propyl)-4-(1H-tetrazol-5-yl)-benzenesulfonamide] | 46 | – | 103
13 | Cc1c(N(CCC(F)(F)F)S(=O)(=O)c2ccc(-c3nsc(=O)[nH]3)cc2)sc2ccccc12 [Compound 637, N-(3-Methyl-benzo[b]thiophen-2-yl)-N-(3,3,3-trifluoro-propyl)-4-(5-oxo-4,5-dihydro-[1,2,4]thiadiazol-3-yl)-benzenesulfonamide] | 12.2 | – | 104
14 | O=C(O)c1ccc(S(=O)(=O)N(CCC2CC2)c2cc3ccccc3s2)c(F)c1 [Compound 638, N-(3-Benzo[b]thiophen-2-yl)-N-(2-cyclopropyl-ethyl)-2-fluoro-4-carboxy-benzenesulfonamide] | 60 | 100 | –
15 | O=C(O)c1ccc(S(=O)(=O)N(CCC(F)(F)F)c2cc3ccccc3s2)c(F)c1 [Compound 639, N-(3-Benzo[b]thiophen-2-yl)-N-(3,3,3-trifluoro-propyl)-2-fluoro-4-carboxy-benzenesulfonamide] | 128 | 84 | –
16 | Cc1c(N(CCCCC(F)(F)F)S(=O)(=O)c2ccc(-c3nsc(=O)[nH]3)cc2)sc2ccccc12 [Compound 640, N-(3-Methyl-benzo[b]thiophen-2-yl)-N-(5,5,5-trifluoro-pentyl)-4-(5-oxo-4,5-dihydro-[1,2,4]thiadiazol-3-yl)-benzenesulfonamide] | 11 | – | 103
17 | Cc1c(N(CCC2CC2)S(=O)(=O)c2ccc(-c3nsc(=O)[nH]3)cc2)sc2ccccc12 [Compound 641, N-(3-Methyl-benzo[b]thiophen-2-yl)-N-(cyclopropyl-ethyl)-4-(5-oxo-4,5-dihydro-[1,2,4]thiadiazol-3-yl)-benzenesulfonamide] | 14 | – | 103
18 | O=c1[nH]c(-c2ccc(S(=O)(=O)N(CCC3CC3)c3cc4ccccc4s3)cc2)ns1 [Compound 642, N-(Benzo[b]thiophen-2-yl)-N-(cyclopropyl-ethyl)-4-(5-oxo-4,5-dihydro-[1,2,4]thiadiazol-3-yl)-benzenesulfonamide] | 41 | – | 90
19 | CN(C)C1=C(N(CCC2CC2)S(=O)(=O)c2ccccc2)S(=O)(=O)c2ccccc21 [Compound 643, N-(2-Cyclopropylethyl)-N-(3-dimethylamino-1,1-dioxo-1H-benzo[b]thiophen-2-yl)-benzenesulfonamide] | 5 | – | 103
20 | CNC1=C(N(CCC2CC2)S(=O)(=O)c2ccccc2)S(=O)(=O)c2ccccc21 [Compound 644, N-(2-Cyclopropylethyl)-N-(3-methylamino-1,1-dioxo-1H-benzo[b]thiophen-2-yl)-benzenesulfonamide] | – | – | 63
21 | CN1CCN(C2=C(N(CCC3CC3)S(=O)(=O)c3ccccc3)S(=O)(=O)c3ccccc32)CC1 [Compound 645, N-(2-Cyclopropyl-ethyl)-N-[3-(4-methyl-piperazin-1-yl)-1,1-dioxo-1H-1λ^6-benzo[b]thiophen-2-yl]-benzenesulfonamide] | – | – | 20
22 | NC1=C(N(CCC2CC2)S(=O)(=O)c2ccccc2)S(=O)(=O)c2ccccc21 [Compound 646, N-(3-Amino-1,1-dioxo-1H-benzo[b]thiophen-2-yl)-N-(2-cyclopropylethyl)-benzenesulfonamide] | – | – | 55
23 | O=S1(=O)C(N(CCC2CC2)S(=O)(=O)c2ccccc2)=C(N2CCNCC2)c2ccccc21 [Compound 647, N-(2-Cyclopropyl-ethyl)-N-(1,1-dioxo-3-piperazin-1-yl-1H-1λ^6-benzo[b]thiophen-2-yl)-benzenesulfonamide] | – | – | 21
